US20240246913A1, “2-CARBOXYL-INDOLE INHIBITORS OF METALLO-BETA-LACTAMASES” (Oxford University Innovation Limited, priority 2021, published 2024)
Structures can show the parent of a compound that is named as a salt. Where two headings read alike, the source gives them in different places.

How the values were obtained:
Type in all cases: biochemical
IMP-1 = IMP-1 (Serratia marcescens, UniProt P52699); assay: MBL inhibition, FC-5 fluorescence assay, IMP-1
Procedure: (§1) Inhibitors were tested using a panel of the clinically relevant B1 MBLs (NDM-1, VIM-1, -2 and IMP-1). Activities were assayed by monitoring the release of a fluorophore following the enzymatic breakdown of the cephalosporin FC-5 (https://pubs.acs.org/doi/abs/10.1021/jm400769b). FC-5 assays were conducted in clear bottomed 384 black well microplates (Greiner); the initial rate of reaction was assessed by monitoring the fluorescence intensity (λex=380 nm and λem=460 nm) using a Pherstar FS (BMG LabTech) plate reader. Initial rates of reaction were determined and dose-response analyses conducted in GraphPad Prism. Dose-response curves were fitted using the log(inhibitor) vs normalized response—variable slope model of GraphPad Prism 12. Each concentration point for routine screening was conducted with 4 intra-plate replicates.

VIM-2 = VIM-2 (Escherichia coli, UniProt Q5U7L7); assay: MBL inhibition, FC-5 fluorescence assay, VIM-2
Procedure: as §1

VIM-1 = VIM-1 (Pseudomonas aeruginosa, UniProt A0A0F7KYQ8); assay: MBL inhibition, FC-5 fluorescence assay, VIM-1
Procedure: as §1

NDM-1 = NDM-1 (Klebsiella pneumoniae, UniProt C7C422); assay: MBL inhibition, FC-5 fluorescence assay, NDM-1
Procedure: as §1

[1] = FC-5 cephalosporin substrate, fluorescence, ranges of obtained pIC50, read-out: pIC50 IMP-1 (converted)
[2] = FC-5 cephalosporin substrate, ranges of obtained pIC50, read-out: pIC50 VIM-2 (converted)
[3] = FC-5 cephalosporin substrate, ranges of obtained pIC50, read-out: pIC50 VIM-1 (converted)
[4] = FC-5 cephalosporin substrate, fluorescence, ranges of obtained pIC50, read-out: pIC50 NDM-1 (converted)

Sequence of IMP-1 (P52699 19-246, looked up, species assumed): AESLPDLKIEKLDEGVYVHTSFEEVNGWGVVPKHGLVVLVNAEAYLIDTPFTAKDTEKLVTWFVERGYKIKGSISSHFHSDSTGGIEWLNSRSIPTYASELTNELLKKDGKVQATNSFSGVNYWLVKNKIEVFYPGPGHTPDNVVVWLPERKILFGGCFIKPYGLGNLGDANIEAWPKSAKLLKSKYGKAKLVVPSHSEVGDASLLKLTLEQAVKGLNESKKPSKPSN
Sequence of NDM-1 (C7C422 29-270, looked up, species assumed): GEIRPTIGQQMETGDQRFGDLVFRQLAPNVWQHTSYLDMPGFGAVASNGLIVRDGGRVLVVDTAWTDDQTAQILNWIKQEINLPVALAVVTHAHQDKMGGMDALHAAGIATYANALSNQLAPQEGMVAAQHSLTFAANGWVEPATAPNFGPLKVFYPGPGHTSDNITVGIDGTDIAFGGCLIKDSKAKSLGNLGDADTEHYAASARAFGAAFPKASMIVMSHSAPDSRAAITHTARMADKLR

Row | Compound | IC50 (IMP-1; [1]) [nM] | IC50 (VIM-2; [2]) [nM] | IC50 (VIM-1; [3]) [nM] | IC50 (NDM-1; [4]) [nM] | IC50 (IMP-1) [nM] | IC50 (VIM-2; pIC50 VIM-2, FC-5 cephalosporin substrate, ranges of obtained pIC50) [nM] | IC50 (VIM-1; pIC50 VIM-1, FC-5 cephalosporin substrate, ranges of obtained pIC50) [nM] | IC50 (NDM-1) [nM]
1 | CC(NC(=O)C[C@H]1CC[C@H](N)CC1)c1cccc2c(-c3ccc(CS(C)(=O)=O)c(F)c3)c(C(=O)O)[nH]c12 (mixture of isomers) [IC-100, 7-[1-[[2-(4-Aminocyclohexyl)acetyl]amino]ethyl]-3-[3-fluoro-4-(methylsulfonylmethyl)phenyl]-1H-indole-2-carboxylic acid] | > 10 | 0.1 to 1 | > 10 | > 10 | – | – | – | –
2 | CC(CC(=O)NCCc1c[nH]cn1)c1cccc2c(-c3ccc(CS(C)(=O)=O)c(F)c3)c(C(=O)O)[nH]c12 (racemic) [IC-104, 3-[3-Fluoro-4-(methanesulfonylmethyl)phenyl]-7-(1-{[2-(1H-imidazol-4-yl)ethyl]carbamoy}propan-2-yl)-1H-indole-2-carboxylic acid] | > 10 | > 10 | > 10 | 1 to 10 | – | – | – | –
3 | CC(c1cccc2c(-c3ccc(CS(C)(=O)=O)c(F)c3)c(C(=O)O)[nH]c12)N1CC(CCCN)OC1=O (single isomer, unassigned) [IC-83, 7-(1-(5-(3-Aminopropyl)-2-oxooxazolidin-3-yl)ethyl)-3-(3-fluoro-4-((methylsulfonyl)methyl)phenyl)-1H-indole-2-carboxylic acid] | – | 1 to 10 | 1 to 10 | – | – | – | – | –
4 | CC(c1cccc2c(-c3ccc(CS(C)(=O)=O)c(F)c3)c(C(=O)O)[nH]c12)N1CC(CCCN)OC1=O (single isomer, unassigned) [IC-84, 7-(1-(5-(3-Aminopropyl)-2-oxooxazolidin-3-yl)ethyl)-3-(3-fluoro-4-((methylsulfonyl)methyl)phenyl)-1H-indole-2-carboxylic acid] | > 10 | 0.1 to 1 | 0.1 to 1 | 0.1 to 1 | – | – | – | –
5 | CC(NS(=O)(=O)c1ccccc1)c1cccc2c(-c3cc(Cl)cc(Cl)c3)c(C(=O)O)[nH]c12 (centres unmarked) [IC-1, 3-(3,5-Dichlorophenyl)-7-(1-(phenylsulfonamido)ethyl)-1H-indole-2-carboxylic acid] | > 10 | > 10 | > 10 | > 10 | – | – | – | –
6 | CC(c1cnn(C)c1)c1cccc2c(-c3ccc(CS(C)(=O)=O)c(F)c3)c(C(=O)O)[nH]c12 (centres unmarked) [IC-3, 3-(3-Fluoro-4-((methylsulfonyl)methyl)phenyl)-7-(1-(1-methyl-1H-pyrazol-4-yl)ethyl)-1H-indole-2-carboxylic acid] | > 10 | 1 to 10 | > 10 | 1 to 10 | – | – | – | –
7 | CC(c1cccs1)c1cccc2c(-c3ccc(CS(C)(=O)=O)c(F)c3)c(C(=O)O)[nH]c12 (centres unmarked) [IC-4, 3-(3-Fluoro-4-((methylsulfonyl)methyl)phenyl)-7-(1-(thiophen-2-yl)ethyl)-1H-indole-2-carboxylic acid] | 1 to 10 | 1 to 10 | 1 to 10 | 1 to 10 | – | – | – | –
8 | CC(c1cnn(CCCN)c1)c1cccc2c(-c3ccc(CS(C)(=O)=O)c(F)c3)c(C(=O)O)[nH]c12 (centres unmarked) [IC-5, 7-(1-(1-(3-Aminopropyl)-1H-pyrazol-4-yl)ethyl)-3-(3-fluoro-4-((methylsulfonyl)methyl)phenyl)-1H-indole-2-carboxylic acid] | > 10 | < 0.1 | 1 to 10 | 0.1 to 1 | – | – | – | –
9 | CC(c1cnc(Cl)s1)c1cccc2c(-c3ccc(CS(C)(=O)=O)c(F)c3)c(C(=O)O)[nH]c12 (centres unmarked) [IC-7, 7-(1-(2-Chlorothiazol-5-yl)ethyl)-3-(3-fluoro-4-((methylsulfonyl)methyl)phenyl)-1H-indole-2-carboxylic acid] | 1 to 10 | 1 to 10 | 1 to 10 | 0.1 to 1 | – | – | – | –
10 | CC(c1nn[nH]n1)c1cccc2c(-c3ccc(CS(C)(=O)=O)c(F)c3)c(C(=O)O)[nH]c12 (centres unmarked) [IC-9, 7-(1-(2H-Tetrazol-5-yl)ethyl)-3-(3-fluoro-4-((methylsulfonyl)methyl)phenyl)-1H-indole-2-carboxylic acid] | > 10 | > 10 | > 10 | > 10 | – | – | – | –
11 | CC(c1cccc2c(-c3ccc(CS(C)(=O)=O)c(Cl)c3)c(C(=O)O)[nH]c12)n1cc(CCCN)nn1 (centres unmarked) [IC-10, 7-[1-[4-(3-Aminopropyl)triazol-1-yl]ethyl]-3-[3-chloro-4-(methylsulfonylmethyl)phenyl]-1H-indole-2-carboxylic acid] | > 10 | < 0.1 | > 10 | 0.1 to 1 | – | – | – | –
12 | CC(c1cccc2c(-c3ccc(CS(C)(=O)=O)c(F)c3)c(C(=O)O)[nH]c12)N1CCNCC1 (centres unmarked) [IC-12, 3-(3-Fluoro-4-((methylsulfonyl)methyl)phenyl)-7-(1-(piperazin-1-yl)ethyl)-1H-indole-2-carboxylic acid] | – | – | – | – | > 10 | 1 to 10 | > 10 | > 10
13 | C[C@@H](c1cccc2cc(C(=O)O)[nH]c12)N1C[C@]2(C[C@@H](CN)C2)OC1=O [IC-30] | > 10 | > 10 | > 10 | > 10 | – | – | – | –
14 | C[C@@H](c1cccc2c(-c3cc(O)nc(O)c3)c(C(=O)O)[nH]c12)N1C[C@]2(C[C@@H](CN)C2)OC1=O [IC-31, 3-(2,6-dihydroxypyridin-4-yl)-7-[(1S)-1-[(2r,4r)-2-(aminomethyl)-6-oxo-5-oxa-7-azaspiro[3.4]octan-7-yl]ethyl]-1H-indole-2-carboxylic acid] | > 10 | 1 to 10 | > 10 | 1 to 10 | – | – | – | –
15 | C[C@@H](c1cccc2c(N3CCS(=O)(=O)CC3)c(C(=O)O)[nH]c12)N1C[C@]2(C[C@@H](CN)C2)OC1=O [IC-40, 7-((S)-1-((2S,4r)-2-(aminomethyl)-6-oxo-5-oxa-7-azaspiro[3.4]octan-7-yl)ethyl)-3-(1,1-dioxidothiomorpholino)-1H-indole-2-carboxylic acid] | 1 to 10 | > 10 | > 10 | > 10 | – | – | – | –
16 | C[C@@H](c1cccc2c(-c3ccc4c(c3)CC(=O)N4)c(C(=O)O)[nH]c12)N1C[C@]2(C[C@@H](CN)C2)OC1=O [IC-41, 7-((S)-1-((2S,4r)-2-(aminomethyl)-6-oxo-5-oxa-7-azaspiro[3.4]octan-7-yl)ethyl)-3-(2-oxoindolin-5-yl)-1H-indole-2-carboxylic acid] | > 10 | 1 to 10 | 1 to 10 | 0.1 to 1 | – | – | – | –
17 | C[C@@H](c1cccc2c(-c3cnc(N)nc3)c(C(=O)O)[nH]c12)N1C[C@]2(C[C@@H](CN)C2)OC1=O [IC-42, 7-((S)-1-((2S,4r)-2-(aminomethyl)-6-oxo-5-oxa-7-azaspiro[3.4]octan-7-yl)ethyl)-3-(2-aminopyrimidin-5-yl)-1H-indole-2-carboxylic acid] | > 10 | 0.1 to 1 | 1 to 10 | 0.1 to 1 | – | – | – | –
18 | C[C@@H](c1cccc2c(-c3cn[nH]c3)c(C(=O)O)[nH]c12)N1C[C@]2(C[C@@H](CN)C2)OC1=O [IC-43, 7-((S)-1-((2S,4r)-2-(aminomethyl)-6-oxo-5-oxa-7-azaspiro[3.4]octan-7-yl)ethyl)-3-(1H-pyrazol-4-yl)-1H-indole-2-carboxylic acid] | > 10 | 1 to 10 | > 10 | 0.1 to 1 | – | – | – | –
19 | CC(c1noc(C2CNC(=O)C2)n1)c1cccc2c(-c3ccc(CS(C)(=O)=O)c(F)c3)c(C(=O)O)[nH]c12 (centres unmarked) [IC-63, 3-[3-Fluoro-4-(methylsulfonylmethyl)phenyl]-7-[1-[5-(5-oxopyrrolidin-3-yl)-1,2,4-oxadiazol-3-yl]ethyl]-1H-indole-2-carboxylic acid] | > 10 | < 0.1 | > 10 | 1 to 10 | – | – | – | –
20 | CC(c1cccc2c(-c3ccc(CS(C)(=O)=O)c(F)c3)c(C(=O)O)[nH]c12)n1cc(CCCN)[nH]c1=O (centres unmarked) [IC-64, 7-[1-[5-(3-Aminopropyl)-2-oxo-1H-imidazol-3-yl]ethyl]-3-[3-fluoro-4-(methylsulfonylmethyl)phenyl]-1H-indole-2-carboxylic acid] | > 10 | 1 to 10 | > 10 | 1 to 10 | – | – | – | –
21 | CC(c1cccc2c(-c3ccc(CS(C)(=O)=O)c(F)c3)c(C(=O)O)[nH]c12)n1cc(CCCNC(=N)N)oc1=O (centres unmarked) [IC-73, 3-(3-Fluoro-4-((methylsulfonyl)methyl)phenyl)-7-(1-(5-(3-guanidinopropyl)-2-oxooxazol-3(2H)-yl)ethyl)-1H-indole-2-carboxylic acid hydrochloride] | > 10 | 1 to 10 | 1 to 10 | 0.1 to 1 | – | – | – | –
22 | CC(c1cccc2c(-c3ccc(CS(C)(=O)=O)c(F)c3)c(C(=O)O)[nH]c12)n1cc(CCCN(C)C)oc1=O (centres unmarked) [IC-75, 7-(1-(5-(3-(Dimethylamino)propyl)-2-oxooxazol-3(2H)-yl)ethyl)-3-(3-fluoro-4-((methylsulfonyl)methyl)phenyl)-1H-indole-2-carboxylic acid] | > 10 | 1 to 10 | 1 to 10 | 0.1 to 1 | – | – | – | –
